Where two headings read alike, the source gives them in different places.
Columns and labels:
Format in all cases: in vivo
[1] = test system: Puccinia triticina; synonym: Puccinia recondita f. sp. tritici; assay: Fungicidal activity: wheat brown rust (PUCCRT), wheat seedlings; details: 100 ppm, wheat
In short: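 Wheat (Yuma) seedlings at first-leaf stage, inoculated with Puccinia triticina spores before or after treatment, held overnight in dark dew room at 22° C, 100% RH, then greenhouse at 24° C. Acetone solutions diluted with nine volumes water containing 110 ppm Triton X-100, sprayed to run-off. Percent disease control derived from severity (0–100%) relative to untreated plants.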

[2] = test system: Mycosphaerella graminicola; anamorph: Septoria tritici; assay: Fungicidal activity: leaf blotch of wheat (SEPTTR), wheat seedlings; details: Zymoseptoria tritici, 100 ppm, wheat
In short: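 Percent control derives from disease severity on treated versus untreated first leaves, rated 0–100% when symptoms were fully expressed on untreated plants. Yuma seedlings were inoculated with S. tritici spores either before or after spraying to run-off. The spray was acetone solution diluted 1:9 in water with 110 ppm Triton X-100. Infection took place in 100% RH dew chambers, then a 20 °C greenhouse.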

Alternaria solani = assay: Fungicidal activity: tomato early blight (ALTESO); details: 24 h, 1 Day Protectant, read-out: Disease Control ALTESO 1DP
Protocol: Technical grades of materials were dissolved in acetone, which were then mixed with nine volumes of water containing 110 ppm Triton X-100. The fungicide solutions were applied onto wheat seedlings using an automated booth sprayer to run-off. All sprayed plants were allowed to air dry prior to further handling. Wheat plants (variety Yuma) were grown from seed in a greenhouse in 50% mineral soil/50% soil-less Metro mix until the first leaf was fully emerged, with 7-10 seedlings per pot. These plants were inoculated with an aqueous spore suspension of Septoria tritici either prior to or after fungicide treatments. After inoculation the plants were kept in 100% relative humidity (one day in a dark dew chamber followed by two to three days in a lighted dew chamber at 20° C.) to permit spores to germinate and infect the leaf. The plants were then transferred to a greenhouse set at 20° C. for disease to develop. When disease symptoms were fully expressed on the 1st leaves of untreated plants, infection levels were assessed on a scale of 0 to 100 percent disease severity. Percent disease control was calculated using the ratio of disease severity on treated plants relative to untreated plants. Evaluation of Fungicidal Activity: Tomato Early Blight (Alternaria solani; Bayer Code […]) Tomato plants (variety Outdoor girl) were propagated in soil-less Metro mix, with each pot having one plant, and used when 12 to 14 days old. Test plants were inoculated with an aqueous spore suspension of Alternaria solani 24 hr after fungicide treatments. After inoculation the plants were kept in 100% relative humidity (one day in a dark dew chamber followed by two to three days in a lighted dew chamber at 20° C.) to permit spores to germinate and infect the leaf. The plants were then transferred to a growth room at 22° C. for disease to develop. Fungicide formulation, application and disease assessment on the sprayed leaves followed the procedures as described in the Example A.

[3] = test system: Blumeria graminis f.sp. tritici; synonym: Erysiphe graminis f.sp. tritici; assay: Fungicidal activity: wheat powdery mildew (ERYSGT); details: 24 h, 1 Day Protectant, read-out: Disease Control ERYSGT 1 DP
Protocol: Technical grades of materials were dissolved in acetone, which were then mixed with nine volumes of water containing 110 ppm Triton X-100. The fungicide solutions were applied onto wheat seedlings using an automated booth sprayer to run-off. All sprayed plants were allowed to air dry prior to further handling. Wheat plants (variety Yuma) were grown from seed in a greenhouse in 50% mineral soil/50% soil-less Metro mix until the first leaf was fully emerged, with 7-10 seedlings per pot. These plants were inoculated with an aqueous spore suspension of Septoria tritici either prior to or after fungicide treatments. After inoculation the plants were kept in 100% relative humidity (one day in a dark dew chamber followed by two to three days in a lighted dew chamber at 20° C.) to permit spores to germinate and infect the leaf. The plants were then transferred to a greenhouse set at 20° C. for disease to develop. When disease symptoms were fully expressed on the 1st leaves of untreated plants, infection levels were assessed on a scale of 0 to 100 percent disease severity. Percent disease control was calculated using the ratio of disease severity on treated plants relative to untreated plants. Evaluation of Fungicidal Activity: Wheat Powdery Mildew (Blumeria graminis f.sp. tritici; Synonym: Erysiphe graminis f.sp. tritici; Bayer Code […]) Wheat plants (variety Yuma) were grown from seed in a greenhouse in 50% mineral soil/50% soil-less Metro mix until the first leaf was fully emerged, with 7-10 seedlings per pot. These plants were inoculated by dusting with infected stock plants 24 hr after fungicide treatments. After inoculation the plants were kept in a greenhouse set at 20° C. for disease to develop. Fungicide formulation, application and disease assessment on the sprayed leaves followed the procedures as described in the Example A.

[4] = test system: Magnaporthe grisea; anamorph: Pyricularia oryzae; assay: whole plant or invertebrate; details: 24 h, read-out: Disease Control PYRIOR 1 DP
[5] = 24 h, 1 Day Protectant, read-out: Disease Control PUCCRT 1DP
[6] = 72 h, 3 Day Curative, read-out: Disease Control PUCCRT 3DC
[7] = 24 h, 1 Day Protectant, read-out: Disease Control SEPTTR 1DP
[8] = 72 h, 3 Day Curative, read-out: Disease Control SEPTTR 3DC

| SMILES | pest or weed control at 100 ppm [1, 5] | pest or weed control at 100 ppm [1, 6] | pest or weed control at 100 ppm [2, 7] | pest or weed control at 100 ppm [2, 8] | pest or weed control at 100 ppm (Alternaria solani) | pest or weed control at 100 ppm [3] | pest or weed control at 100 ppm [4] |
| --- | --- | --- | --- | --- | --- | --- | --- |
| COc1ccnc(C(=O)N[C@H]2COC[C@H](OCC(C)C)[C@@H](OCC(C)C)[C@H](C)OC2=O)c1OCOC(=O)C(C)C [Compound 2] | 80 to 100% | 80 to 100% | 80 to 100% | 80 to 100% | – | – | – |
| COc1ccnc(C(=O)N[C@H]2COC[C@H](OCC(C)C)[C@@H](OCC(C)C)[C@H](C)OC2=O)c1OCOC(C)=O [Compound 3, (2-((3S,7S,8S,9S)-7,8-diisobutoxy-9-methyl-2-oxo-1,5-dioxonan-3-ylcarbamoyl)-4-methoxypyridin-3-yloxy)methyl] | 80 to 100% | 80 to 100% | 80 to 100% | 80 to 100% | 0 to 80% | 80 to 100% | 80 to 100% |
| COc1ccnc(C(=O)NC2COC[C@H](OCc3ccccc3)[C@@H](OCc3ccccc3)[C@H](C)OC2=O)c1OCOC(C)=O (stereo partly shown) [Compound 12] | 80 to 100% | 80 to 100% | 80 to 100% | 80 to 100% | 0 to 80% | 0 to 80% | 80 to 100% |
| CCCCO[C@H]1COC[C@H](NC(=O)c2nccc(OC)c2OCOC(C)=O)C(=O)O[C@@H](C)[C@@H]1OCCOC [Compound 54] | 80 to 100% | 80 to 100% | 0 to 80% | 0 to 80% | – | 0 to 80% | 0 to 80% |
| CCCCO[C@H]1COC[C@H](NC(=O)c2nccc(OC)c2OCOC(C)=O)C(=O)O[C@@H](C)[C@@H]1OCC(F)F [Compound 55] | 80 to 100% | 80 to 100% | 80 to 100% | 80 to 100% | – | 0 to 80% | 80 to 100% |
| COc1ccnc(C(=O)N[C@H]2COC[C@H](OC(=O)C(C)C)[C@@H](OC(=O)C(C)C)[C@H](C)OC2=O)c1OCOC(C)=O [Compound 57] | 80 to 100% | 80 to 100% | 80 to 100% | 80 to 100% | 0 to 80% | 0 to 80% | 80 to 100% |
| COc1ccnc(C(=O)N[C@H]2COC[C@H](OCCCc3ccccc3)[C@@H](OCCCc3ccccc3)[C@H](C)OC2=O)c1OCOC(C)=O [Compound 60] | 80 to 100% | 80 to 100% | 80 to 100% | 0 to 80% | 0 to 80% | 0 to 80% | 80 to 100% |
| COc1ccnc(C(=O)N[C@H]2COC[C@H](OC)[C@@H](OC)[C@H](C)OC2=O)c1OCOC(C)=O [Compound 65] | – | 0 to 80% | – | 0 to 80% | – | – | – |
| COc1ccnc(C(=O)N[C@H]2COC[C@H](OCCCC(F)(F)F)[C@@H](OCCCC(F)(F)F)[C@H](C)OC2=O)c1OCOC(C)=O [Compound 68] | 80 to 100% | 80 to 100% | 80 to 100% | 80 to 100% | 0 to 80% | 0 to 80% | 80 to 100% |
| COc1ccnc(C(=O)N[C@H]2COC[C@H](OCC(C)C)[C@@H](OC3CCCCC3)[C@H](C)OC2=O)c1OCOC(C)=O [Compound 77] | 80 to 100% | 80 to 100% | 80 to 100% | 80 to 100% | 0 to 80% | 0 to 80% | 80 to 100% |
| CCC(C)(C)O[C@H]1COC[C@H](NC(=O)c2nccc(OC)c2OCOC(C)=O)C(=O)O[C@@H](C)[C@@H]1OCC(C)C [Compound 78] | 80 to 100% | 80 to 100% | 80 to 100% | 80 to 100% | 0 to 80% | 80 to 100% | 80 to 100% |
| COc1ccnc(C(=O)N[C@H]2COC[C@H](Oc3ccccc3)[C@@H](Oc3ccccc3)[C@H](C)OC2=O)c1OCOC(C)=O [Compound 84] | 80 to 100% | 80 to 100% | 80 to 100% | 80 to 100% | 0 to 80% | 0 to 80% | 80 to 100% |
| COc1ccnc(C(=O)N[C@H]2COC[C@H](OCC(C)C)[C@@H](Oc3ccccc3)[C@H](C)OC2=O)c1OCOC(C)=O [Compound 85] | 80 to 100% | 80 to 100% | 80 to 100% | 80 to 100% | 0 to 80% | 0 to 80% | 80 to 100% |
| COc1ccnc(C(=O)N[C@H]2COC[C@H](Oc3ccccc3)[C@@H](OCC(C)C)[C@H](C)OC2=O)c1OCOC(C)=O [Compound 86] | 80 to 100% | 80 to 100% | 80 to 100% | 80 to 100% | 80 to 100% | 80 to 100% | 80 to 100% |
| CCCO[C@H]1COC[C@H](NC(=O)c2nccc(OC)c2OCOC(C)=O)C(=O)O[C@@H](C)[C@@H]1Oc1ccccc1 [Compound 221] | 80 to 100% | 80 to 100% | 80 to 100% | 80 to 100% | – | – | 80 to 100% |
| CCCO[C@H]1[C@H](C)OC(=O)[C@@H](NC(=O)c2nccc(OC)c2OCOC(C)=O)COC[C@@H]1Oc1ccccc1 [Compound 222] | 80 to 100% | 80 to 100% | 80 to 100% | 80 to 100% | 0 to 80% | – | 80 to 100% |
| COc1ccnc(C(=O)N[C@H]2COC[C@H](Oc3ccc(F)cc3)[C@@H](Oc3ccc(F)cc3)[C@H](C)OC2=O)c1OC(C)=O [Compound 229, 2-(((3S,7S,8S,9S)-7,8-bis(4-fluorophenoxy)-9-methyl-2-oxo-1,5-dioxonan-3-yl)carbamoyl)-4-methoxypyridin-3-yl acetate] | – | – | – | – | 0 to 80% | – | 80 to 100% |
| COc1ccnc(C(=O)N[C@H]2COC[C@H](Oc3ccc(F)cc3)[C@@H](Oc3ccc(F)cc3)[C@H](C)OC2=O)c1OCOC(C)=O [Compound 231] | – | – | – | – | 0 to 80% | – | 80 to 100% |

Reference: patent US9144239B2, “Macrocyclic picolinamides as fungicides” (DOW AGROSCIENCES LLC, priority 2012, dated 2015)
